The values that follow come from paper PMC6458391, “Deep eutectic solvent for an expeditious sono-synthesis of novel series of bis-quinazolin-4-one derivatives as potential anti-cancer agents” (Royal Society Open Science, 2019).

Data set [1] deals with A549 (lung cancer) cell line. Nature of the data set: MTT cytotoxicity assay, A549. The note with it: for inhibition: 48 h, triplicate, mean ± s.e.m.; for IC50: read-out: IC50 A549, MTT, 48 h drug treatment, A549.
Method: Two concentrations (10 and 30 µM in triplicate) of the derivatives were utilized and after 48 h of drug treatment the results were analyzed. The obtained results were tabulated as mean ± s.e.m. With standard errors below 10%, the reproducibility between replicate wells is within the acceptable values.
The cytotoxic activities of all newly prepared derivatives were assessed in monolayer cultures by utilizing MTT assay. […] The tested derivatives were prepared prior to the experiment by dissolving in 0.1% DMSO and diluted with medium. The cells were then exposed to two concentrations of drugs (10 and 30 µM) in the volume of 100 µM/well. Cells in the control wells received the same volume of medium comprising 0.1% DMSO. After 24 h, the medium was removed and cell cultures were incubated with 100 ml MTT reagent for 5 h at 37°C. The known number of cells was incubated in a 5% CO2 incubator at 37°C in the presence of different concentrations of test compounds. After 48 h of drug incubation, the MTT solution was added in each well and the absorbance was measured by using a microplate reader at 490 nm. The experiment was performed in triplicate. Cell survival was calculated as the percentage of MTT inhibition as % growth inhibition = 100 − (mean OD of individual test group/mean OD of each control group) × 100.
[2] abbreviates: read-out: Cells viability (%) A549, 10 μM, 10 μM.
The mark [3] stands for this setting: read-out: Cells viability (%) A549, 30 μM, 30 μM.

Where two headings read alike, the source gives them in different places.

For the compound `Cc1nc2ccc(Cl)cc2c(=O)n1-c1ccc(-n2c(C)nc3ccc(Cl)cc3c2=O)cc1` [Compound 6c, 3,3′-(1,4-Phenylene)bis(6-chloro-2-methylquinazolin-4(3H)-one)], the melting point lay within 287 to 290 °C. Also, the inhibition in data set [1] (setting [2]) is 91.98 ± 0.49%. Moreover, the inhibition in data set [1] (setting [3]) turned out to be 98.02 ± 0.21%. Also, the IC50 in data set [1] is 5.15 µM.

As to `Cc1nc2ccc(F)cc2c(=O)n1[C@H]1CC[C@H](n2c(C)nc3ccc(F)cc3c2=O)CC1` [Compound 3d, 3,3'-((1R,4R)-Cyclohexane-1,4-diyl)bis(6-fluoro-2-methylquinazolin-4(3H)-one)], the melting point lay in the range of 262 to 264 °C. Besides, in data set [1] (setting [2]), the inhibition amounted to 67.49 ± 0.27%. Besides, the inhibition in data set [1] (setting [3]) was found to be 90 ± 43%. Besides, in data set [1], the IC50 is 8.11 µM.

`Cc1nc2ccccc2c(=O)n1-c1ccccc1-n1c(C)nc2ccccc2c1=O` [Compound 9, 3,3′-(1,2-Phenylene)bis(2-methylquinazolin-4(3H)-one)]: the melting point is 187 to 190 °C.

The compound `Cc1nc2ccc(F)cc2c(=O)n1CCn1c(C)nc2ccc(F)cc2c1=O` [Compound 5d, 3,3′-(Ethane-1,2-diyl)bis(6-fluoro-2-methylquinazolin-4(3H)-one)] displayed a melting point of 219 to 221 °C. In addition, in data set [1] (setting [2]), the inhibition stood at 54.49 ± 0.27%. Besides, the inhibition in data set [1] (setting [3]) came to 90 ± 43%. For the same compound, the concentration for half-maximal inhibition (IC50) in data set [1] was 7.95 µM.

For the compound `CNC(=O)c1cc(Oc2ccc(NC(=O)Nc3ccc(Cl)c(C(F)(F)F)c3)cc2)ccn1` [Sorafenib, sorafenib, reference compound], the inhibition was found to be 89.8 ± 1.14% in data set [1] (setting [2]) and 91.2 ± 1.44% in data set [1] (setting [3]). The half-inhibitory concentration (IC50) in data set [1] amounted to 5.2 µM.

With `Cc1nc2ccc([N+](=O)[O-])cc2c(=O)n1-c1ccc(S(=O)(=O)c2ccc(-n3c(C)nc4ccc([N+](=O)[O-])cc4c3=O)cc2)cc1` [Compound 7e, 3,3′-(Sulfonylbis(4,1-phenylene))bis(2-methyl-6-nitroquinazolin-4(3H)-one)], the melting point lay within 316 to 319 °C. For the same compound, the “potency against A549 relative to sorafenib” value in data set [1] (from IC50 values) is listed as “approximately twice as potent as sorafenib”. Besides, in data set [1] (setting [2]), the inhibition came out at 95.99 ± 0.14%. The inhibition in data set [1] (setting [3]) was 96.76 ± 0.87%. The 50% inhibitory concentration (IC50) in data set [1] stood at 2.75 µM.

Take `Cc1nc2ccc([N+](=O)[O-])cc2c(=O)n1CCn1c(C)nc2ccc([N+](=O)[O-])cc2c1=O` [Compound 5e, 3,3′-(Ethane-1,2-diyl)bis(2-methyl-6-nitroquinazolin-4(3H)-one)]: the melting point is 278 to 279 °C. The inhibition in data set [1] (setting [2]) is 91.54 ± 0.56%. The inhibition in data set [1] (setting [3]) came out at 97.83 ± 0.24%. Further, the half-maximal inhibitory concentration (IC50) in data set [1] stood at 5.05 µM.

As to `Cc1ccc2nc(C)n([C@H]3CC[C@H](n4c(C)nc5ccc(C)cc5c4=O)CC3)c(=O)c2c1` [Compound 3b, 3,3′-((1R,4R)-Cyclohexane-1,4-diyl)bis(2,6-dimethylquinazolin-4(3H)-one)], the melting point lay in the range of 280 to 281 °C. Also, the inhibition in data set [1] (setting [2]) worked out at 39.3 ± 2.76%. In data set [1] (setting [3]), the inhibition was 90.12 ± 0.25%. Also, the IC50 in data set [1] is 15.7 µM.

Consider `Cc1nc2ccc([N+](=O)[O-])cc2c(=O)n1-c1ccc(-n2c(C)nc3ccc([N+](=O)[O-])cc3c2=O)cc1` [Compound 6e, 3,3′-(1,4-Phenylene)bis(2-methyl-6-nitroquinazolin-4(3H)-one)], for which the melting point was in the range of 307 to 310 °C. The inhibition in data set [1] (setting [2]) is 95.4 ± 0.24%. Besides, in data set [1] (setting [3]), the inhibition came out at 97.6 ± 0.21%. Further, the IC50 in data set [1] turned out to be 3.43 µM.

`Cc1nc2ccc(Cl)cc2c(=O)n1Cc1ccc(Cn2c(C)nc3ccc(Cl)cc3c2=O)cc1` [Compound 4c, 3,3′-(1,4-Phenylenebis(methylene))bis(6-chloro-2-methylquinazolin-4(3H)-one)] had a melting point of 327 to 330 °C. Further, the inhibition in data set [1] (setting [2]) was 79.5 ± 2.61%. In addition, the inhibition in data set [1] (setting [3]) worked out at 81.8 ± 0.87%. For the same compound, the IC50 in data set [1] is 6.07 µM.

As for `Cc1nc2ccccc2c(=O)n1-c1cccc(-n2c(C)nc3ccccc3c2=O)c1` [Compound 11, 3,3′-(1,3-Phenylene)bis(2-methylquinazolin-4(3H)-one)], the melting point fell in the range of 236 to 238 °C. In addition, the inhibition in data set [1] (setting [2]) is 79.8 ± 1.05%. Moreover, the inhibition in data set [1] (setting [3]) came out at 83.2 ± 1.02%. Besides, in data set [1], the half-maximal inhibitory concentration (IC50) came to 5.94 µM.

Turning to `Cc1nc2ccc(Cl)cc2c(=O)n1-c1ccc(S(=O)(=O)c2ccc(-n3c(C)nc4ccc(Cl)cc4c3=O)cc2)cc1` [Compound 7c, 3,3′-(Sulfonylbis(4,1-phenylene))bis(6-chloro-2-methylquinazolin-4(3H)-one)], the melting point was 332 to 335 °C. The inhibition in data set [1] (setting [2]) turned out to be 72.3 ± 0.78%. Also, in data set [1] (setting [3]), the inhibition worked out at 88.43 ± 0.19%. Also, the IC50 in data set [1] was determined as 4.21 µM.

In the case of `Cc1ccc2nc(C)n(-c3ccc(S(=O)(=O)c4ccc(-n5c(C)nc6ccc(C)cc6c5=O)cc4)cc3)c(=O)c2c1` [Compound 7b, 3,3′-(Sulfonylbis(4,1-phenylene))bis(2,6-dimethylquinazolin-4(3H)-one)], the melting point lay within 310 to 313 °C. Besides, the inhibition in data set [1] (setting [2]) came out at 53.1 ± 2.2%. For the same compound, the inhibition in data set [1] (setting [3]) is 86.8 ± 1.19%. Further, the IC50 in data set [1] worked out at 5.77 µM.

Regarding `Cc1nc2ccc(Cl)cc2c(=O)n1CCn1c(C)nc2ccc(Cl)cc2c1=O` [Compound 5c, 3,3′-(Ethane-1,2-diyl)bis(6-chloro-2-methylquinazolin-4(3H)-one)], the melting point lay in the range of 244 to 246 °C. Besides, the inhibition in data set [1] (setting [2]) turned out to be 61.9 ± 2.34%. The inhibition in data set [1] (setting [3]) amounted to 82.1 ± 1.93%. Moreover, in data set [1], the half-maximal inhibitory concentration (IC50) stood at 7.98 µM.

For `Cc1nc2ccccc2c(=O)n1-c1ccc(-n2c(C)nc3ccccc3c2=O)cc1` [Compound 6a, 3,3′-(1,4-Phenylene)bis(2-methylquinazolin-4(3H)-one)], the melting point is 178 to 180 °C. Further, the inhibition in data set [1] (setting [2]) amounted to 54.49 ± 0.27%. Besides, the inhibition in data set [1] (setting [3]) was found to be 90 ± 43%. Further, the half-maximal inhibitory concentration (IC50) in data set [1] stood at 8.41 µM.

Compound `Cc1nc2ccccc2c(=O)n1Cc1ccc(Cn2c(C)nc3ccccc3c2=O)cc1` [Compound 4a, 3,3′-(1,4-Phenylenebis(methylene))bis(2-methylquinazolin-4(3H)-one)] gave a melting point of 277 to 279 °C. Further, the inhibition in data set [1] (setting [2]) came out at 60.4 ± 3.31%. For the same compound, the inhibition in data set [1] (setting [3]) is 62.9 ± 1.45%. In data set [1], the IC50 came to 6.11 µM.

`Cc1nc2ccccc2c(=O)n1CCn1c(C)nc2ccccc2c1=O` [Compound 5a, 3,3′-(Ethane-1,2-diyl)bis(2-methylquinazolin-4(3H)-one)] showed a melting point of 190 to 192 °C. Further, in data set [1] (setting [2]), the inhibition worked out at 32.4 ± 2.91%. Further, in data set [1] (setting [3]), the inhibition came to 88.7 ± 1.83%. The half-inhibitory concentration (IC50) in data set [1] stood at 12.3 µM.

As to `Cc1nc2ccc(Cl)cc2c(=O)n1[C@H]1CC[C@H](n2c(C)nc3ccc(Cl)cc3c2=O)CC1` [Compound 3c, 3,3′-((1R,4R)-Cyclohexane-1,4-diyl)bis(6-chloro-2-methylquinazolin-4(3H)-one)], the melting point lay in the range of 311 to 313 °C. Moreover, in data set [1] (setting [2]), the inhibition was found to be 61.1 ± 1.82%. In addition, the inhibition in data set [1] (setting [3]) turned out to be 96.98 ± 0.4%. Besides, the IC50 in data set [1] was 8.14 µM.

For the compound `Cc1nc2ccc(F)cc2c(=O)n1-c1ccc(-n2c(C)nc3ccc(F)cc3c2=O)cc1` [Compound 6d, 3,3′-(1,4-Phenylene)bis(6-fluoro-2-methylquinazolin-4(3H)-one)], the melting point lay within 269 to 272 °C. Moreover, in data set [1] (setting [2]), the inhibition was found to be 82.7 ± 1.67%. Besides, the inhibition in data set [1] (setting [3]) worked out at 81.78 ± 0.45%. Moreover, the concentration for half-maximal inhibition (IC50) in data set [1] turned out to be 4.54 µM.

On to `Cc1nc2ccc(F)cc2c(=O)n1Cc1ccc(Cn2c(C)nc3ccc(F)cc3c2=O)cc1` [Compound 4d, 3,3′-(1,4-Phenylenebis(methylene))bis(6-fluoro-2-methylquinazolin-4(3H)-one)], for which the melting point was 217 to 219 °C. The inhibition in data set [1] (setting [2]) was 94.29 ± 0.39%. Besides, the inhibition in data set [1] (setting [3]) is 96.09 ± 0.244%. Further, the IC50 in data set [1] worked out at 5.55 µM.

For `Cc1ccc2nc(C)n(Cc3ccc(Cn4c(C)nc5ccc(C)cc5c4=O)cc3)c(=O)c2c1` [Compound 4b, 3,3′-(1,4-Phenylenebis(methylene))bis(2,6-dimethylquinazolin-4(3H)-one)], the melting point lay in the range of 285 to 287 °C. In addition, the inhibition in data set [1] (setting [2]) amounted to 76 ± 2.21%. Further, the inhibition in data set [1] (setting [3]) was determined as 78.7 ± 1.76%. For the same compound, the IC50 in data set [1] was 6.79 µM.

As for `Cc1nc2ccc(F)cc2c(=O)n1-c1ccc(S(=O)(=O)c2ccc(-n3c(C)nc4ccc(F)cc4c3=O)cc2)cc1` [Compound 7d, 3,3′-(Sulfonylbis(4,1-phenylene))bis(6-fluoro-2-methylquinazolin-4(3H)-one)], the melting point lay within 301 to 303 °C. In addition, the inhibition in data set [1] (setting [2]) was determined as 96.46 ± 0.65%. For the same compound, the inhibition in data set [1] (setting [3]) stood at 96.68 ± 0.17%. Moreover, the IC50 in data set [1] turned out to be 3.45 µM.

Consider `Cc1nc2ccccc2c(=O)n1-c1ccccc1N`, for which the melting point was 109 to 111 °C.

For the compound `Cc1nc2ccc([N+](=O)[O-])cc2c(=O)n1Cc1ccc(Cn2c(C)nc3ccc([N+](=O)[O-])cc3c2=O)cc1` [Compound 4e, 3,3′-(1,4-Phenylenebis(methylene))bis(2-methyl-6-nitroquinazolin-4(3H)-one)], the melting point lay within 350 to 353 °C. In addition, the inhibition in data set [1] (setting [2]) was 80.2 ± 2.1%. For the same compound, the inhibition in data set [1] (setting [3]) turned out to be 87 ± 1.45%. For the same compound, the IC50 in data set [1] came to 2.98 µM.

As to `Cc1ccc2nc(C)n(-c3ccc(-n4c(C)nc5ccc(C)cc5c4=O)cc3)c(=O)c2c1` [Compound 6b, 3,3′-(1,4-Phenylene)bis(2,6-dimethylquinazolin-4(3H)-one)], the melting point fell in the range of 263 to 265 °C. Further, the inhibition in data set [1] (setting [2]) was 59.2 ± 1.53%. In addition, the inhibition in data set [1] (setting [3]) was determined as 95.12 ± 0.22%. Moreover, the IC50 in data set [1] turned out to be 8.13 µM.

In turn, `Cc1nc2ccc([N+](=O)[O-])cc2c(=O)n1[C@H]1CC[C@H](n2c(C)nc3ccc([N+](=O)[O-])cc3c2=O)CC1` [Compound 3e, 3,3′-((1R,4R)-Cyclohexane-1,4-diyl)bis(2-methyl-6-nitroquinazolin-4(3H)-one)] had a melting point of 301 to 304 °C. Further, the inhibition in data set [1] (setting [2]) was 77.1 ± 1.78%. Also, the inhibition in data set [1] (setting [3]) was found to be 82.8 ± 1.64%. For the same compound, the IC50 in data set [1] turned out to be 5.34 µM.

For the compound `Cc1nc2ccccc2c(=O)n1-c1cccc(N)c1`, the melting point is 121 to 123 °C.
